Read-outs that look alike come from different tables or passages of the source.
How the values were obtained:
[1] = Oral administration for 7 consecutive days in rat; design: species or system male CD-IGS rat; conditions: in vivo
Experimental: The NOAEL was determined to be 1000 mg/kg/day.

B cell = B cell proliferation; assay type: cell-based
U251 = experiment: Solid tumor cell colony formation; assay type: cell-based; conditions: Homo sapiens, U-251
OVCAR-3 = experiment: Solid tumor cell colony formation; assay type: cell-based; conditions: Homo sapiens
U87 = experiment: Invasion of solid tumor cells; assay type: cell-based; conditions: Homo sapiens, U-87 MG; U87 (PDGF), glioblastoma
blood vessel growth = experiment: Mouse Matrigel angiogenesis assay; assay type: in vivo; conditions: 30 mpk
SF268 = experiment: Solid tumor cell colony formation; assay type: cell-based; conditions: Homo sapiens, SF-268
[2] = test system: human umbilical vascular endothelial cell (HUVEC); experiment: HUVEC invasion; assay type: cell-based
Colo-205 = experiment: Solid tumor cell colony formation; assay type: cell-based; conditions: Homo sapiens
HCT116 = experiment: Solid tumor cell colony formation; assay type: cell-based; conditions: Homo sapiens, HCT-116
HCT15 = experiment: Invasion of solid tumor cells; assay type: cell-based
[3] = Pharmacokinetics in monkeys on Day 1 and Day 27; conditions: monkey, in vivo; for AUC(0-t): read-out: AUC0-24
Karpas-1106P = experiment: 5 day 3H thymidine incorporation assay; assay type: cell-based; conditions: Homo sapiens, PMBL
From the text: (§1) Results of 3 independent experiments are shown (mean±SD) in FIG. 2. […] ABC-subtype cells appear more sensitive to the antiproliferative effect than other subtype cells including GCB-DLBCL and PMBL cells.

WSU-DLCL2 = experiment: 5 day 3H thymidine incorporation assay; assay type: cell-based; conditions: Homo sapiens, WSUDLCL2; WSU-DLCL2, GCB subtype
From the text: as §1

RIVA = experiment: 5 day 3H thymidine incorporation assay; assay type: cell-based; conditions: ABC subtype
From the text: as §1

OCI-Ly10 = experiment: 5 day 3H thymidine incorporation assay; assay type: cell-based; conditions: Homo sapiens; OCI-Ly10, ABC subtype
From the text: as §1

U2932 = experiment: 5 day 3H thymidine incorporation assay; assay type: cell-based; conditions: Homo sapiens; U2932, ABC subtype
From the text: as §1

TMD8 = experiment: 5 day 3H thymidine incorporation assay; assay type: cell-based; conditions: Homo sapiens; TMD8, ABC subtype
From the text: as §1

SUDHL4 = experiment: 5 day 3H thymidine incorporation assay; assay type: cell-based; conditions: Homo sapiens, SU-DHL-4; SUDHL4, GCB subtype
From the text: as §1

OCI-Ly19 = experiment: 5 day 3H thymidine incorporation assay; assay type: cell-based; conditions: Homo sapiens; OCI-Ly19, GCB subtype
From the text: as §1

[4] = test system: multiple myeloma (MM) cell lines; experiment: Inhibition of MM cell proliferation; assay type: cell-based
Experimental: (§2) The ability of compounds to effect the proliferation of MM cell lines was investigated in an in vitro study. Uptake of [^3H]-thymidine by H929 MM cells and 7-AAD uptake in several MM cell lines (H929, U266B1, Anbl-6, KMS-34, OPM-2, DF-15, DF15/R, CAG, MM1.S and LP-1) was measured as an indicator of cell proliferation. Cells were incubated in the presence of compounds for 72 hours ([^3H]-thymidine was included for the last 6 hours of the incubation period) or 5 days followed by 7-AAD uptake to measure and count viable cells.

SF295 = experiment: Solid tumor cell colony formation; assay type: cell-based; conditions: Homo sapiens, SF-295
1054 = experiment: Activity against lenalidomide resistant cell lines; assay type: cell-based; conditions: 1054, n = 3; read-out: IC50
Experimental: as §2

1051 = experiment: Activity against lenalidomide resistant cell lines; assay type: cell-based; conditions: 1051, n = 3; read-out: IC50
Experimental: as §2

1053 = experiment: Activity against lenalidomide resistant cell lines; assay type: cell-based; conditions: 1053, n = 3; read-out: IC50
Experimental: as §2

D1 = experiment: Activity against lenalidomide resistant cell lines; assay type: cell-based; conditions: D1, n = 3; read-out: IC50
Experimental: as §2

H929 = experiment: Activity against lenalidomide resistant cell lines; assay type: cell-based; conditions: Homo sapiens, NCI-H929; H929, n = 3
Experimental: as §2

1052 = experiment: Activity against lenalidomide resistant cell lines; assay type: cell-based; conditions: 1052, n = 3; read-out: IC50
Experimental: as §2

TNFα = experiment: WB TNFα; assay type: cell-based; conditions: Homo sapiens; whole blood
[5] = female, 0.15 mg/kg, Day 1, 0.15 mg/kg, female
[6] = female, 0.15 mg/kg, Day 27, 0.15 mg/kg, female
[7] = female, 1.5 mg/kg, Day 1, 1.5 mg/kg, female
[8] = female, 1.5 mg/kg, Day 27, 1.5 mg/kg, female
[9] = female, 15 mg/kg, Day 1, 15 mg/kg, female
[10] = female, 15 mg/kg, Day 27, 15 mg/kg, female
[11] = male, 0.15 mg/kg, Day 1, 0.15 mg/kg, male
[12] = male, 0.15 mg/kg, Day 27, 0.15 mg/kg, male
[13] = male, 1.5 mg/kg, Day 1, 1.5 mg/kg, male
[14] = male, 1.5 mg/kg, Day 27, 1.5 mg/kg, male
[15] = male, 15 mg/kg, Day 1, 15 mg/kg, male
[16] = male, 15 mg/kg, Day 27, 15 mg/kg, male

SMILES: Cc1nc2cccc(N)c2c(=O)n1C1CCC(=O)NC1=O (centres unmarked) [compound of Formula I, 3-(5-amino-2-methyl-4-oxo-4H-quinazolin-3-yl)-piperidine-2,6-dione]
- NOAEL at 7 days ([1]; oral, 7 consecutive days, male CD-IGS rat): 1000 mg/kg/day
- exposure versus dose ([1]; rat): near dose proportional exposure increases
- EC50 (B cell): 15 nM
- inhibition at 10 µM (U251): -6%
- inhibition at 10 µM (OVCAR-3): 18%
- IC50 (U87): 80 nM
- blood vessel growth (blood vessel growth): significantly inhibited
- inhibition at 10 µM (SF268): 0.6%
- IC50 ([2]; read-out: IC50 for inhibition of HGF-induced HUVEC invasion): 110 nM
- IC50 ([2]; read-out: IC50 for inhibition of VEGF-induced HUVEC invasion): 0.29 nM
- IC50 ([2]; read-out: IC50 for inhibition of bFGF-induced HUVEC invasion): 5.5 nM
- inhibition at 10 µM (Colo-205): 17%
- inhibition at 10 µM (HCT116): 13%
- IC50 (HCT15; Homo sapiens, HCT-15, HCT15 (bFGF), colorectal): 7.2 nM
- ability to inhibit invasion of HCT-15 cells (HCT15; with siCRBN): reduced
- Cmax [3, 5]: 63 ng/mL
- Tmax [3, 5]: 2 h
- AUC(0-t) [3, 5]: 450 ng·h/mL
- Cmax [3, 6]: 57 ng/mL
- Tmax [3, 6]: 2 to 4 h
- AUC(0-t) [3, 6]: 450 ng·h/mL
- Cmax [3, 7]: 680 ng/mL
- Tmax [3, 7]: 2 h
- AUC(0-t) [3, 7]: 4100 ng·h/mL
- Cmax [3, 8]: 590 ng/mL
- Tmax [3, 8]: 0.5 to 2 h
- AUC(0-t) [3, 8]: 4200 ng·h/mL
- Cmax [3, 9]: 4200 ng/mL
- Tmax [3, 9]: 2 to 4 h
- AUC(0-t) [3, 9]: 38000 ng·h/mL
- Cmax [3, 10]: 7000 ng/mL
- Tmax [3, 10]: 4 h
- AUC(0-t) [3, 10]: 75000 ng·h/mL
- Cmax [3, 11]: 36 ng/mL
- Tmax [3, 11]: 2 to 4 h
- AUC(0-t) [3, 11]: 430 ng·h/mL
- Cmax [3, 12]: 53 ng/mL
- Tmax [3, 12]: 4 h
- AUC(0-t) [3, 12]: 570 ng·h/mL
- Cmax [3, 13]: 510 ng/mL
- Tmax [3, 13]: 2 to 4 h
- AUC(0-t) [3, 13]: 4600 ng·h/mL
- Cmax [3, 14]: 560 ng/mL
- Tmax [3, 14]: 2 h
- AUC(0-t) [3, 14]: 5700 ng·h/mL
- Cmax [3, 15]: 4100 ng/mL
- Tmax [3, 15]: 4 h
- AUC(0-t) [3, 15]: 51000 ng·h/mL
- Cmax [3, 16]: 5800 ng/mL
- Tmax [3, 16]: 2 to 4 h
- AUC(0-t) [3, 16]: 72000 ng·h/mL
- IC50 (Karpas-1106P): 580 to 710 nM
- IC50 (WSU-DLCL2): 790 to 2100 nM
- IC50 (RIVA): 4300 nM
- IC50 (OCI-Ly10): 8.5 nM
- IC50 (U2932): 110 to 120 nM
- IC50 (TMD8): 440 nM
- IC50 (SUDHL4): > 10000 nM
- IC50 (OCI-Ly19): > 10000 nM
- MM cell proliferation in a number of cell lines [4]: inhibit MM cell proliferation
- inhibition at 10 µM (SF295): 12.9%
- IC50 1054: 6590 nM
- IC50 1051: 2970 nM
- IC50 1053: 2100 nM
- IC50 (D1): 309 nM
- IC50 (H929): 154 nM
- IC50 1052: 4240 nM
- IC50 (TNFα): 164 nM

— US20180055844A1 (Celgene Corporation, priority 2011, published 2018)
